Data published in patent publication US7563893B2, “3-Phenyl-cinnoline analogue and antitumor agent using the same” (Nippon Kayaku Kabushiki Kaisha, priority 2002, dated 2009).
Converted amounts (≈) assume the structure as drawn.

Columns and labels:
[1] = test system: Mammary tumor cells ZR-75-1; test: Antitumor effect in vivo, subcutaneous tumor in nude mice; settings: day 15 after initiating administration; oral 500 mg/kg once a day for 14 days; ZR-75-1 in female nude mice
Protocol: Antitumor Effect in vivo Using Mammary Tumor Cell ZR-75-1
Mammary tumor cells ZR-75-1 were inoculated in dorsal subcutaneous region of female nude mice. The compound of example 66 and example 53 was administered orally at dose level of 500 mg/kg, once a day, for 14 days consecutively from the point of initiating logarithmic growth of tumor cells. Conjugate axis and transverse axis of tumor were measured in the time dependent manner, and tumor volume was calculated by the following equation. Relative tumor volume, wherein tumor volume at the time of initiating administration was set as 1, was calculated. Effectiveness was judged by value (T/C) wherein tumor volume in the treated group is divided by tumor volume in the control group. tumor volume=conjugate axis×conjugate axis×transverse axis/2

[2] = test system: mammary tumor cells, T-47D; test: Antitumor effect in vitro, proliferation inhibition, same condition as Test Example 1; assay type: cell-based; settings: Homo sapiens, T47D, 4000 cells
Protocol: (§1) Each MCF-7, 2000 cells, and MDA-MB-453, 4000 cells, was inoculated using 10% serum added RPMI 1640 medium (Asahi Technoclass Inc.) into a 96 well plate. After incubating these cells at 37° C., under atmosphere of 5% CO2/95% air for 24 hours, each of the compounds of Examples 1, 2, 6, 9-13, 20, 24, 26, 27, 65, 66, 70, 71, 72 and 73 was added and incubated for further 3 days. Cells were stained with a 0.05% methylene blue solution and measured using a microplate reader (Benchmark Plus, Bio-Rad Laboratories) by absorption at 660 nm. Proliferation inhibition rate was calculated by the following equation, and 50% cell proliferation inhibitory concentrations of the compounds of Examples 1, 2, 6, 9-13, 20, 24, 26, 27, 65, 66, 70, 71, 72 and 73 were shown in Table 2. Proliferation inhibition rate=(1−absorbance with drug addition÷absorbance in control)×100
Further, a test was conducted by using 4000 mammary tumor cells, T-47D, by adding a compound of example 65 or 66 under the same condition hereinabove.

Mammary tumor cell MCF-7 = test: Antitumor effect in vitro, proliferation inhibition (methylene blue staining, absorption at 660 nm); assay type: cell-based; settings: MCF-7, 2000 cells, incubated 3 days with compound; for IC50: Homo sapiens, MCF7, 72 h, read-out: IC50 (50% cell proliferation inhibitory concentration), MCF-7
Protocol: (§2) Antitumor Effect in vitro Using Mammary Tumor Cell MCF-7 and MDA-MB-453
as §1

[3] = test system: Mammary tumor cell MDA-MB-453; test: as above; assay type: cell-based; settings: MDA-MB-453, 4000 cells, incubated 3 days with compound; for IC50: Homo sapiens, 72 h, read-out: IC50 (50% cell proliferation inhibitory concentration), MDA-MB-453
Protocol: as §2, §1

Row | IC50 (Mammary tumor cell MCF-7) [µg/mL] | IC50 [3] [µg/mL] | Compound | further results
1 | 0.1 (≈ 0.324 µM) | 1.64 (≈ 5.32 µM) | CC1CC(=O)C2=C(C1)NN=C(c1cccc(C(F)(F)F)c1)C2 (stereo not drawn) [Example 65, 7-methyl-3-(3-trifluoromethylphenyl)-4,6,7,8-tetrahydro-1H-cinnolin-5-one] | IC50 [2]: 0.67 µg/mL (≈ 2.17 µM)
2 | 0.181 (≈ 0.595 µM) | 0.551 (≈ 1.81 µM) | Cc1cc(O)c2cc(-c3cccc(C(F)(F)F)c3)nnc2c1 [Example 70, 7-methyl-3-(3-trifluoromethylphenyl)cinnolin-5-ol] | 
3 | 0.138 (≈ 0.398 µM) | 0.42 (≈ 1.21 µM) | CC(=O)Oc1cc(C)cc2nnc(-c3cccc(C(F)(F)F)c3)cc12 [Example 72, 5-acetyloxy-7-methyl-3-(3-trifluoromethylphenyl)cinnoline] | 
4 | 0.158 (≈ 0.496 µM) | 3.36 (≈ 10.6 µM) | COc1cc(C)cc2nnc(-c3cccc(C(F)(F)F)c3)cc12 [Example 71, 5-methoxy-7-methyl-3-(3-trifluoromethylphenyl)cinnoline] | 
5 | 0.399 (≈ 1.01 µM) | 2.6 (≈ 6.59 µM) | Cc1cc(OCc2ccccc2)c2cc(-c3cccc(C(F)(F)F)c3)nnc2c1 [Example 73, 5-benzyloxy-7-methyl-3-(3-trifluoromethylphenyl)cinnoline] | 

Continued, compound first:

Row | Compound | IC50 (Mammary tumor cell MCF-7) [µg/mL] | IC50 [3] [µg/mL] | further results
6 | CC1CC(=O)c2cc(-c3cccc(C(F)(F)F)c3)nnc2C1 (stereo not drawn) [Example 66, 7-methyl-3-(3-trifluoromethylphenyl)-7,8-dihydro-6H-cinnolin-5-one] | 0.05 (≈ 0.163 µM) | 1.26 (≈ 4.11 µM) | T/C value (tumor volume in treated group divided by control group) [1]: 30.3%; IC50 [2]: 0.28 µg/mL (≈ 0.914 µM)
7 | CC(C)[C@H](N)C(=O)O[C@@H]1C[C@@H](C)Cc2nnc(-c3cccc(C(F)(F)F)c3)cc21.Cl.Cl |  |  | melting point: 181 to 185 °C
8 | O=C1CCCc2c1cc(-c1cccc(C(F)(F)F)c1)n[n+]2[O-] [Example 13, 5-oxo-1-oxy-3-(3-trifluoromethylphenyl)-7,8-dihydro-6H-cinnoline] |  |  | IC50 (50% cell proliferation inhibitory concentration), MCF-7 (Mammary tumor cell MCF-7): 0.0671 µg/mL (≈ 0.218 µM); IC50 (50% cell proliferation inhibitory concentration), MDA-MB-453 [3]: 0.9510 µg/mL (≈ 3.09 µM)
9 | CC1Cc2nnc(-c3cccc(C(F)(F)F)c3)cc2C(O)C1 (racemic) [Example 6, 7-methyl-3-(3-trifluoromethylphenyl)-5,6,7,8-tetrahydrocinnolin-5-ol] | 0.0499 (≈ 0.162 µM) | 1.47 (≈ 4.77 µM) | 
10 | CC1Cc2nnc(-c3cccc(C(F)(F)F)c3)cc2C(OC(=O)[C@@H](N)C(C)C)C1.Cl.Cl (stereo partly drawn) [Example 53, 5-(L-valyloxy)-7-methyl-3-(3-trifluoromethylphenyl)-5,6,7,8-tetrahydrocinnoline dihydrochloride] |  |  | melting point: 201 to 203 °C; T/C value (tumor volume in treated group divided by control group) [1]: 34.0%
11 | 7-benzyl-3-(3-trifluoromethylphenyl)-7,8-dihydro-6H-pyrido[3,4-c]-pyridazin-3-one [Example 26] |  |  | IC50 (50% cell proliferation inhibitory concentration), MCF-7 (Mammary tumor cell MCF-7): 0.3610 µg/mL; IC50 (50% cell proliferation inhibitory concentration), MDA-MB-453 [3]: 8.9300 µg/mL
12 | CC1Cc2nnc(-c3cccc(C(F)(F)F)c3)cc2C(O)C1 (stereo not drawn) [Example 10, syn-(+)-7-methyl-3-(3-trifluoromethylphenyl)-5,6,7,8-tetrahydrocinnolin-5-ol] |  |  | IC50 (50% cell proliferation inhibitory concentration), MCF-7 (Mammary tumor cell MCF-7): 0.0982 µg/mL (≈ 0.319 µM); IC50 (50% cell proliferation inhibitory concentration), MDA-MB-453 [3]: 1.5400 µg/mL (≈ 5 µM)
13 | CC1CC(=O)c2cc(-c3cccc(F)c3)nnc2C1 (stereo not drawn) [Example 24, 3-(3-fluorophenyl)-7-methyl-7,8-dihydro-6H-cinnolin-5-one] | 3.57 (≈ 13.9 µM) | 4.95 (≈ 19.3 µM) | 
14 | CC1Cc2nnc(-c3cccc(C(F)(F)F)c3)cc2C(O)C1 (stereo not drawn) [Example 9, syn-(−)-7-methyl-3-(3-trifluoromethylphenyl)-5,6,7,8-tetrahydrocinnolin-5-ol] |  |  | IC50 (50% cell proliferation inhibitory concentration), MCF-7 (Mammary tumor cell MCF-7): 0.0772 µg/mL (≈ 0.25 µM); IC50 (50% cell proliferation inhibitory concentration), MDA-MB-453 [3]: 0.3390 µg/mL (≈ 1.1 µM)
15 | CC(C)[C@H](N)C(=O)O[C@H]1C[C@H](C)Cc2nnc(-c3cccc(C(F)(F)F)c3)cc21.Cl.Cl |  |  | melting point: 186 to 189 °C
16 | CC(C)(O)C1Cc2nnc(-c3cccc(C(F)(F)F)c3)cc2C(O)C1 (stereo not drawn) [Example 27, 7-(2-hydroxy-2-propyl)-3-(3-trifluoromethylphenyl)-5,6,7,8-tetrahydrocinnolin-5-ol] | 0.271 (≈ 0.769 µM) | 4.72 (≈ 13.4 µM) | 
17 | CC(=O)OC1CC(C)Cc2nnc(-c3cccc(C(F)(F)F)c3)cc21 (stereo not drawn) [Example 11, 5-acetyloxy-7-methyl-3-(3-trifluoromethylphenyl)-5,6,7,8-tetrahydrocinnoline] | 0.0455 (≈ 0.13 µM) | 0.848 (≈ 2.42 µM) | 
18 | CC1CC(=O)c2cc(-c3cccc([N+](=O)[O-])c3)nnc2C1 (stereo not drawn) [Example 20, 7-methyl-3-(3-nitrophenyl)-7,8-dihydro-6H-cinnolin-5-one] | 1.41 (≈ 4.96 µM) | 9.35 (≈ 33 µM) | 
19 | CCOC(=O)C1CC(=O)c2cc(-c3cccc(C(F)(F)F)c3)nnc2C1 (stereo not drawn) [Example 2, ethyl 5-oxo-3-(3-trifluoro-methylphenyl)-7,8-dihydro-6H-cinnoline-7-carboxylate] |  |  | IC50 (50% cell proliferation inhibitory concentration), MCF-7 (Mammary tumor cell MCF-7): 1.9600 µg/mL (≈ 5.38 µM); IC50 (50% cell proliferation inhibitory concentration), MDA-MB-453 [3]: 1.5700 µg/mL (≈ 4.31 µM)
20 | O=C1CC(c2ccccc2)Cc2nnc(-c3cccc(C(F)(F)F)c3)cc21 (stereo not drawn) [Example 1, 7-phenyl-3-(3-trifluoro-methylphenyl)-7,8-dihydro-6H-cinnolin-5-one] |  |  | IC50 (50% cell proliferation inhibitory concentration), MCF-7 (Mammary tumor cell MCF-7): 0.0388 µg/mL (≈ 0.105 µM); IC50 (50% cell proliferation inhibitory concentration), MDA-MB-453 [3]: 0.0395 µg/mL (≈ 0.107 µM)
21 | CC(C)[C@H](N)C(=O)O[C@@H]1C[C@H](C)Cc2nnc(-c3cccc(C(F)(F)F)c3)cc21.Cl.Cl |  |  | melting point: 162 to 165 °C
